# Assay results: patent publication US6407227B1, “Process for the crystallization of lactitol” (Xyrofin Oy, priority 1997, dated 2002)
# Key:
# [1] = Linear curve fittings of the solubility points and stability areas from intersections of solubility curves; type: physicochemical; conditions: for solubility line s as function of temperature t (linear fitting): t in ° C., s = weight of lactitol/(weight of lactitol+weight of water)×100%, between 100 and 0 ° C.
# Text: The solubility data of Table 2 was combined with some earlier solubility measurement data. The curve fittings of the solubility points were made as linear fittings, when % by weight is used as a concentration unit. […] The fittings were made with the aid of the spread sheet program Excel 5.0^R. The solubility equations of the different hydrate forms are shown in Equations (I) to (IV): [formula]
# The fitting of the trihydrate cannot be considered absolutely exact because only three measurement points were used for fitting: one exact point, one uncertain point and one calculatory point.
# The solubility points and the curve fittings are shown in a graph in FIG. 1. […] From the intersections of solubility curves it is possible to conclude the stability areas of the different lactitol forms.
# [2] = Solubility Test 1: equilibrium solubility of lactitol crystals in water; type: physicochemical
# Experimental: The determination of the solubility and stability of lactitol crystals in water was made as follows:
# The lactitol, which was used in the tests, was high grade lactitol monohydrate Lactitol MC (batch 21769) manufactured by Xyrofin OY, Finland according to EP Patent 0456636. This monohydrate was also used as seed crystals. When lactitol dihydrate was studied at 45° C. and 55 ° C., lactitol dihydrate produced at the applicant's research laboratory Dec. 20, 1994 (crystallization No. 3) was used both for solution and as seed crystals. […] The water, which was used, was distilled water.
# At 35° C. the supersaturation was 10 g/100 g. […] The solutions were made by dissolving the monohydrate into water at a temperature above the solubility temperature. The solutions which were used at 65° C. and 75° C. were made by evaporating with a vacuum rotating flask evaporator. The concentrations were determined by refractometric indexes (RI). At the temperatures of 5° C., 10° C. and 15° C. the solutions were made in a 2-liter jacketed vessel. The other solutions were made in 200 ml or 250 ml measurement bottles.
# When the lactitol had dissolved, the solution was cooled to the test temperature. The solution was seeded with softly crushed monohydrate crystals (2 tests with dihydrate crystals). In the measurement bottles the solutions were stirred with a magnetic stirrer and in the jacketed vessel with a motor driven mixer.
# The crystallization of lactitol and the equilibration of the solution was monitored by measuring the refractometric index (RI) of the mother liquid. Before taking a sample, the crystals were allowed settle on the bottom of the vessel, so that the measurement of the RI would be as exact as possible. […] Thus, the RI of the mother liquid was measured from a suspension of crystals and solution. At the end point of the measurement the waiting time was so long that the mother liquid was clearly separated and after that the RI of the mother liquid was measured. The RIs were measured below 55° C. with an Index Instruments GPR-11-37 refractometer and above 55° C. with a Zeiβ refractometer, both of which were calibrated.
# The equilibration of the solution was generally monitored for 7 . . . 14 days, but only for 3 days, when dihydrate was used as seed crystals. […] 150° C. and reading accuracy of 0.2° C. The accuracy of this thermometer was checked against a calibrated thermometer.
# After the crystal suspension had reached equilibrium, the crystals were separated by centrifuging 15 min 5000 rpm using a thick cloth. One part of the crystals was dried at 60° C. in a drying cabinet over a night. The water contents of both undried and dried crystals were analyzed by the Karl Fischer method or by a coulometric Karl Fischer method. Furthermore, melting behaviors were analyzed.
# The final solubilities at the studied temperatures are shown in Tables 2 and 3 in addition to the crystal forms. The crystal form was concluded from the water contents of the undried crystals and from the melting ranges. The water contents are shown in Tables 4 and 5 and melting behaviors in Table 6.
smiles,measurement,setting,value
"OC[C@@H](O)[C@@H](O[C@@H]1O[C@H](CO)[C@H](O)[C@H](O)[C@H]1O)[C@H](O)[C@@H](O)CO [trihydrate, lactitol trihydrate]",stability area (temperature),"[1]; in water, from the intersections of solubility curves, trihydrate",< 12 °C
same,solubility line s as function of temperature t (linear fitting),[1]; trihydrate,33.4+1.1482t
same,Solubility,"[2]; 5.1 ° C., lactitol monohydrate used as seed crystals",42.3 g/100 g
"OC[C@@H](O)[C@@H](O[C@@H]1O[C@H](CO)[C@H](O)[C@H](O)[C@H]1O)[C@H](O)[C@@H](O)CO [monohydrate, lactitol monohydrate]",solubility line s as function of temperature t (linear fitting),[1]; monohydrate,50.2+0.4346t
same,Solubility,"[2]; 54.7 ° C., lactitol dihydrate used as seed crystals",73.4 g/100 g
same,Solubility,"[2]; 55.0 ° C., lactitol monohydrate used as seed crystals",75.2 g/100 g
same,Solubility,"[2]; 65.0 ° C., lactitol monohydrate used as seed crystals",79.6 g/100 g
"OC[C@@H](O)[C@@H](O[C@@H]1O[C@H](CO)[C@H](O)[C@H](O)[C@H]1O)[C@H](O)[C@@H](O)CO [dihydrate, lactitol dihydrate]",solubility line s as function of temperature t (linear fitting),[1]; dihydrate,39.7+0.6332t
same,Solubility,"[2]; 10.2 ° C., lactitol monohydrate used as seed crystals",45.7 g/100 g
same,Solubility,"[2]; 15.0 ° C., lactitol monohydrate used as seed crystals",48.8 g/100 g
same,Solubility,"[2]; 25.6 ° C., lactitol monohydrate used as seed crystals",56.3 g/100 g
same,Solubility,"[2]; 35.0 ° C., lactitol monohydrate used as seed crystals",61.7 g/100 g
same,Solubility,"[2]; 45.0 ° C., lactitol dihydrate used as seed crystals",69.1 g/100 g
